According to ChEMBL document CHEMBL3988442, “University of Dundee, Small-Polar-MMV Screening Library” (2021):
Values joined by “and” are separate entries in the source; they are usually repeats but may differ in a detail not shown here. Identical values can stand only once.

How the values were obtained:
[1] = biological target: Polyketide synthase Pks13 (Mycobacterium tuberculosis (strain ATCC 25618 / H37Rv), UniProt I6X8D2); assay: Mycobacterium tuberculosis Polyketide synthase 13 Thioesterase (PKS13); format: functional
ClpP1P2 = ClpP1P2 (Mycobacterium tuberculosis (strain ATCC 25618 / H37Rv), UniProt P9WPC3+P9WPC5); assay: in vitro assay to detect presence of AMC directly proportional to the activity of ClpP1P2. GHDDI collaboration.; format: functional
[2] = biological target: T1, Coenzyme A biosynthesis bifunctional protein CoaBC (Mycobacterium tuberculosis (strain ATCC 25618 / H37Rv), UniProt P9WNZ1); assay: Biomol Green assay for MtCoaBC inhibitor, OD650 read; format: functional
T1 sequence (P9WNZ1 whole entry): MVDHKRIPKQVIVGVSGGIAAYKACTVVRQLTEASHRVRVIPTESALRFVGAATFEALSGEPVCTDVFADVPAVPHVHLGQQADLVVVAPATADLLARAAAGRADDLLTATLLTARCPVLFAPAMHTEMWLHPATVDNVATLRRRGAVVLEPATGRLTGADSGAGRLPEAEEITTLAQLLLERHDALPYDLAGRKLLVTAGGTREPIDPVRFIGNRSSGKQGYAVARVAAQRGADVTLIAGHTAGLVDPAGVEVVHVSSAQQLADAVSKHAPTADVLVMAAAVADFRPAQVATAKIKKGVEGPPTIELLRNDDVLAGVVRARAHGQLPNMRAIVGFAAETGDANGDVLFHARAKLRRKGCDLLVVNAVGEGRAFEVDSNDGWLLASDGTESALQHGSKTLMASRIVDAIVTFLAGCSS

Lysine--tRNA ligase = Lysine--tRNA ligase (Plasmodium falciparum (isolate 3D7), UniProt Q8IDJ8); assay: Pf-KRS-1 (Lysyl-RNA Synthetase-1, KRS-1, cytosolic KRS) from Plasmodium falciparum. Inhibitor assay, 384 well plate, luminescence read.; format: functional
Histidine--tRNA ligase = biological target: T2, Histidine--tRNA ligase (Leishmania infantum, UniProt A4I591); assay: Leishmania infantum Histidine tRNA synthetase (LdHisRS); format: functional
T2 sequence (A4I591 whole entry): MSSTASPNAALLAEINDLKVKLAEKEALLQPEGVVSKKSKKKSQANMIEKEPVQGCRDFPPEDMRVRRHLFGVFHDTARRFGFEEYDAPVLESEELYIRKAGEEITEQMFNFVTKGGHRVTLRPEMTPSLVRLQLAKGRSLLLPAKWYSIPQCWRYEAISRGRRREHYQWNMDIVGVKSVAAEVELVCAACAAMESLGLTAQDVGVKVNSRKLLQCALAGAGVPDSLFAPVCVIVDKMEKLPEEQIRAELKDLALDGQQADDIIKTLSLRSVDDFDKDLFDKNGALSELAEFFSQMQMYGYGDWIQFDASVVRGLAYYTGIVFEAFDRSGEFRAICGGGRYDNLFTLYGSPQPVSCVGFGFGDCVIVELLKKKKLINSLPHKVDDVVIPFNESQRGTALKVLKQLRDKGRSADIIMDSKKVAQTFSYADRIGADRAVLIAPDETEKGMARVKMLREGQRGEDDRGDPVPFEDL

Wolbachia pipientis = assay: Anti-Wolbachia Cell-Based Screen; format: functional; settings: for IC50: Wolbachia pipientis
[3] = In vitro enzyme assay to detect hydrolysis of chlorophenol red-beta-D-[…] directly proportional to the number of Toxoplasma stably expressing beta-galactosidase; format: functional, organism-based, Toxoplasma gondii; settings: for IC50: Toxoplasma gondii
Tryptophan--tRNA ligase = Tryptophan--tRNA ligase (Mycobacterium tuberculosis (strain ATCC 25618 / H37Rv), UniProt P9WFT3); assay: Biochemical assay for Mt-TrpRS; format: functional
Leishmania donovani = assay: Leishmania intramacrophage assay; format: functional, organism-based; settings: Leishmania donovani

Chain of Polyketide synthase Pks13 (I6X8D2 whole entry): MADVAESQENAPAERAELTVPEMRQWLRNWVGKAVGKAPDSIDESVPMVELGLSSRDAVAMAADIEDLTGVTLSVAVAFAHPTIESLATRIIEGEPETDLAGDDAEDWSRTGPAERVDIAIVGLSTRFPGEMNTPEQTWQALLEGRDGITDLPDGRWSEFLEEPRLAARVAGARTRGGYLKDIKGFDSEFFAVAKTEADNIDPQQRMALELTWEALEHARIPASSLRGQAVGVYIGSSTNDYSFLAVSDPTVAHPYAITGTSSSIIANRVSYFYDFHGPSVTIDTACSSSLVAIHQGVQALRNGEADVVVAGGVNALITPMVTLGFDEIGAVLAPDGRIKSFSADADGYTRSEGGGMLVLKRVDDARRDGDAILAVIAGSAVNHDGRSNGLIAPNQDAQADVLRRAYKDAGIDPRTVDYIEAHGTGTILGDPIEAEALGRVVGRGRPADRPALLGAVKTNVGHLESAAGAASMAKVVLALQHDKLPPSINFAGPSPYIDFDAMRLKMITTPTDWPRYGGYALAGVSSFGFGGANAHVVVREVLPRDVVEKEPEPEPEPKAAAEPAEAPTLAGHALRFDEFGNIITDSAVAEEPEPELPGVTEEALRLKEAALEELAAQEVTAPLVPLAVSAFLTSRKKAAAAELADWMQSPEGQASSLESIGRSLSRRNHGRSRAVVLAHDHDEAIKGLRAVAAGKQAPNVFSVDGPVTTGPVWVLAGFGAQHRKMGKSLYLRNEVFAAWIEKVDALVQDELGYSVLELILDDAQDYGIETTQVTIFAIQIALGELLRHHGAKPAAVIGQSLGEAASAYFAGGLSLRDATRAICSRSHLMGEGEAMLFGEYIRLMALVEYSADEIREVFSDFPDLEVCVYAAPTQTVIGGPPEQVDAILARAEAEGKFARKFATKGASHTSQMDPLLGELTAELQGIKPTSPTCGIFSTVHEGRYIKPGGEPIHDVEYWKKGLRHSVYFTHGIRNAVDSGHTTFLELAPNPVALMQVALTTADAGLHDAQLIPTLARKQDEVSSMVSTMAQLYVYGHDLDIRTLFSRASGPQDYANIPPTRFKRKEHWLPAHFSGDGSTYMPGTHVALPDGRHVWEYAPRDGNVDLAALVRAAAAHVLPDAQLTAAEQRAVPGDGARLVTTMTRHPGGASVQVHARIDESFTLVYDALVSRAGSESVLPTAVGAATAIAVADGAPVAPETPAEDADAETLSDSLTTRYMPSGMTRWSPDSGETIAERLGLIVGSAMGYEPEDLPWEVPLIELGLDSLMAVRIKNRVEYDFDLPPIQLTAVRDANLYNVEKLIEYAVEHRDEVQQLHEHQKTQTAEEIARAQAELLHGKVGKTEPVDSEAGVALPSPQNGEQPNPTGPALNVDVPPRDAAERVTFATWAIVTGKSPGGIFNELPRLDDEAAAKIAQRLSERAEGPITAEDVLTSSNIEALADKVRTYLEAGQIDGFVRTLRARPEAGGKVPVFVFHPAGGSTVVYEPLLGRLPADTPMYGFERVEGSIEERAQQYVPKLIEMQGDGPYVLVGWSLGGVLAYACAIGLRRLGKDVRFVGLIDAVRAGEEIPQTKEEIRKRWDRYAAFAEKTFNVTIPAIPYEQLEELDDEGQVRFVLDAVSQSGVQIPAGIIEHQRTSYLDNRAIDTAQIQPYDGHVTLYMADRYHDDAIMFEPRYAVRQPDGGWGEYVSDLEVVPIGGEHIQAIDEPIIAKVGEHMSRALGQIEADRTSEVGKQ
Chain of ClpP1P2 (P9WPC5 whole entry): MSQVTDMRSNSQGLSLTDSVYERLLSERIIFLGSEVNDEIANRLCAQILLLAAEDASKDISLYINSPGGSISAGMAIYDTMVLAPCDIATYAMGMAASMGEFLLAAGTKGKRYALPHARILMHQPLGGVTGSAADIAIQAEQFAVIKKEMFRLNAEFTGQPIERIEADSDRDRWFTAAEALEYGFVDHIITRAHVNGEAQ
Chain of ClpP1P2 (P9WPC3 whole entry): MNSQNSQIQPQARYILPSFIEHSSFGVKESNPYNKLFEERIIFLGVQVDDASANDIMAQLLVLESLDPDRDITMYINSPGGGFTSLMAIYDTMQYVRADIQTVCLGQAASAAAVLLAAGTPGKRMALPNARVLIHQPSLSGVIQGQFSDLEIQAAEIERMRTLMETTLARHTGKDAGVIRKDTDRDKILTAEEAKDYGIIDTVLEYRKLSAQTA
Chain of Lysine--tRNA ligase (Q8IDJ8 whole entry): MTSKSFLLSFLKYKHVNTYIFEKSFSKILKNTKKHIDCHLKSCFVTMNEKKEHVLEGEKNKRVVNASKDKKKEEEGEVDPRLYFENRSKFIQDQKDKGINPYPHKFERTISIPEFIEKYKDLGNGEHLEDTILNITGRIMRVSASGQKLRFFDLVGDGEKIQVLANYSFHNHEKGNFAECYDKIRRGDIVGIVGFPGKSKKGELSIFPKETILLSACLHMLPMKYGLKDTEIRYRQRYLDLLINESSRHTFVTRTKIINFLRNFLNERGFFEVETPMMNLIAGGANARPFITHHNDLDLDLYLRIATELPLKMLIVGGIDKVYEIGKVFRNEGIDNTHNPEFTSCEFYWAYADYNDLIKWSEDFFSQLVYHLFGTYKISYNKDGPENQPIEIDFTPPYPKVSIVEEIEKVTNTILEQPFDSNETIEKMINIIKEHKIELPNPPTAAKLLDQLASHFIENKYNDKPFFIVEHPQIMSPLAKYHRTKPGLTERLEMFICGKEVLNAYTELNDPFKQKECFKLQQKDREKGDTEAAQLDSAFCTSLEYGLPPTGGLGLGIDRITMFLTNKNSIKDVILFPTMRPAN
Chain of Tryptophan--tRNA ligase (P9WFT3 whole entry): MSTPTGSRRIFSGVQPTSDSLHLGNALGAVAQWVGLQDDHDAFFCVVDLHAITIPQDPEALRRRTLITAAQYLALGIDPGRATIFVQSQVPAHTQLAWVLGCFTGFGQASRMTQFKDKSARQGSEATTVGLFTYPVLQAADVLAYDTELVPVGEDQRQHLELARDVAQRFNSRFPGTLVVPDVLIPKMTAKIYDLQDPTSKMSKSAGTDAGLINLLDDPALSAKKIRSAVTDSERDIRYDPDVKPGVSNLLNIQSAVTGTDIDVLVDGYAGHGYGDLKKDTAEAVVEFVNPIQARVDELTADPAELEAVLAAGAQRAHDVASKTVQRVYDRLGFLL

Compound	IC50 [1]	IC50 (ClpP1P2)	pIC50 (Wolbachia pipientis)	IC50 (Wolbachia pipientis)	also measured
O=c1[nH]c(NCCCO)nc2c1C1(CCCC1)Cc1ccccc1-2	24.5 µM and 29.7 µM	> 100 µM			
Cc1ccc2[nH]c(CO[C@H]3CN(c4ccc(C#N)cn4)C[C@H]3F)nc2c1	26.6 µM	7.25 µM			IC50 [2]: > 50.1 µM; IC50 (Lysine--tRNA ligase): > 50.1 µM; IC50 (Histidine--tRNA ligase): 27.1 µM and 37.7 µM
c1ccc(O[C@H]2COCCN(Cc3c[nH]c4ccccc34)C2)cc1			5.37	6.98 µM	
COCC(=O)Nc1ccc(-c2noc([C@@H]3CCCN3C(C)C)n2)cn1			5.079	8.83 µM	
O=C(O)c1cn(-c2ccccn2)c(=O)c2ccccc12	8.93 µM and 20.5 µM	> 100 µM			
CN(C)S(=O)(=O)c1ccc(-c2nc(C#N)c(NC3CC3)o2)o1	12.2 µM and 13.6 µM	> 100 µM			
CC(C)N1c2sc(-c3ccsc3)nc2CC1C(=O)NC1CCCC1 (stereo unspecified)			5.095	7.14 µM	
Cn1c(=O)n(C)c2cc(C3SCC(=O)Nc4ccsc43)ccc21 (stereo unspecified)			5.481	2.44 µM	
O=C(c1ccc(COc2ccc(Cl)cc2)o1)N1N=CCC1(O)C(F)(F)F (stereo unspecified)	17.3 µM and 24.2 µM				pIC50 [3]: 5.524; IC50 [3]: 3.1 µM
CCCn1c(N2CCCC2)nc2c(C)nn(C)c2c1=O	> 100 µM				IC50 [3]: > 50.1 µM
Cc1nn(C)c(C)c1CN(C)c1nc(C2CC2)nc2c(C)nn(C)c12			5.529	2.65 µM	
CCOc1ccc2nc(NC(=O)c3c(C(=O)O)cnn3C)sc2c1			5.956	1.47 µM	
Cn1nccc1CCC(=O)N1CCCC(c2cnccn2)C1 (stereo unspecified)	> 100 µM				IC50 (Tryptophan--tRNA ligase): > 195 µM
Cc1cc(C)c2cc(CNC(C)C)c3nn(C)c(=O)n3c2c1	17 µM and 18.4 µM	> 100 µM			
CC(=O)N1CCC(c2cc(C(F)(F)F)nc3nccn23)CC1	16.7 µM and 13.5 µM	> 100 µM			
COC(=O)CNC(=O)c1nc(-c2ccccc2OC)c2cnccn12	79.6 µM and > 100 µM	> 100 µM			
CS(=O)(=O)c1ccc(-c2nc(C(=O)N3CCCC3)n3ccccc23)cc1	12.3 µM and 12.9 µM	> 100 µM			
Cn1ccnc(Nc2ccc3c(c2)CCN3C(=O)c2ccoc2)c1=O			5.166 and 5.523		

Compound	IC50 [1]	IC50 (ClpP1P2)	pIC50 (Wolbachia pipientis)	IC50 (Wolbachia pipientis)	also measured
CCc1ncc2c(n1)CN(CC1CCCCO1)CC2 (stereo unspecified)	> 100 µM				IC50 (Lysine--tRNA ligase): > 50.1 µM
Cc1csc(CNc2cnc3c(c2)c(C)nn3C)n1	7.6 µM and 15.2 µM	> 100 µM			
Cc1cc(N(Cc2cccs2)C2CC2)n2nc(C(F)(F)F)nc2n1			6.155 and 6.458		
Cc1ccc(F)c2c1N(C(=O)Cc1c(C)nn(C)c1C)CCC2			5.021	8.03 µM	
CN1CCC(NC(=O)c2cc(F)cc(Cl)c2O)C1=O (stereo unspecified)	40.1 µM and 21.4 µM	> 100 µM			
CCCS(=O)(=O)NCc1ncc(C)c(OC)c1C			5.88	1.37 µM	
Cc1nc(C(=O)N(C)CC(F)(F)C(F)(F)F)c2ccccn12	> 57.5 µM and 27.2 µM	> 100 µM			
O=C(CNC(=O)c1ccc(Cl)cc1)Nc1nccs1			5.243	3.56 µM	
COc1cc(CNC(=O)c2csc(Br)c2)ccn1			5.03	5.94 µM	
Cc1nc(N2CCC3(CCOC3)C2)c2cc[nH]c2n1 (stereo unspecified)			5.537	2.38 µM	
CCOCCOCc1cccc(CNc2cncc(-n3cccn3)n2)c1	29.9 µM and 19 µM	> 100 µM			
O=C(c1ccccc1)C1CCN(c2cncc(-n3cccn3)n2)CC1	29 µM and 33.8 µM				IC50 (Leishmania donovani): > 50.1 µM
c1cc(CN2CCc3cncnc3C2)c2c(c1)OCCO2			5.26	> 10 µM	
O=C(Nc1ccnc(OC2CCOC2)c1)c1ccccc1Cl (stereo unspecified)			5.461 and 5.05		
CC(CN1CCCC1=O)NC(=O)c1ccc(-c2ccco2)[nH]c1=O (stereo unspecified)	7.52 µM and 13.7 µM	> 100 µM			
CN(C)C(=O)c1cnc(-c2ccc3c(c2)OCO3)s1	11.1 µM and 8.56 µM	> 100 µM			
CC(C)N(CC(N)=O)C(=O)c1cnc(-c2ccc3c(c2)OCO3)s1	11.1 µM and 12.4 µM	> 100 µM			
